Source: patent publication US12391683B2, “Therapeutic compounds and methods” (Actio Biosciences, Inc., priority 2022, dated 2025)
Several values for one entry are separate records, joined by “and”; a condition that tells them apart may be missing. Identical values can stand only once.

How the values were obtained:
Hepatocytes [1] = assay: Hepatocytes predicted clearance, rat
Hepatocytes [2] = assay: Hepatocytes predicted clearance, dog
Hepatocytes [3] = assay: Hepatocytes predicted clearance, cyno
Hepatocytes [4] = assay: Hepatocytes predicted clearance, mouse
Hepatocytes [5] = assay: Hepatocytes predicted clearance, human
Human TRPV4 = Human TRPV4 (Homo sapiens, UniProt Q9HBA0); assay: TRPV4 calcium flux assay (FLIPR, antagonist mode); assay type: cell-based; parameters: HiBiT (inferred from the expression read-out); host or cells: HEK293T; details: HEK293T cells transfected with hTRPV4; antagonist mode vs EC80 of TRPV4 agonist; average of at least 3 separate experiments; read-out: Human TRPV4 Ca2+ Assay IC50
Human TRPV4, sequence (Q9HBA0 whole entry): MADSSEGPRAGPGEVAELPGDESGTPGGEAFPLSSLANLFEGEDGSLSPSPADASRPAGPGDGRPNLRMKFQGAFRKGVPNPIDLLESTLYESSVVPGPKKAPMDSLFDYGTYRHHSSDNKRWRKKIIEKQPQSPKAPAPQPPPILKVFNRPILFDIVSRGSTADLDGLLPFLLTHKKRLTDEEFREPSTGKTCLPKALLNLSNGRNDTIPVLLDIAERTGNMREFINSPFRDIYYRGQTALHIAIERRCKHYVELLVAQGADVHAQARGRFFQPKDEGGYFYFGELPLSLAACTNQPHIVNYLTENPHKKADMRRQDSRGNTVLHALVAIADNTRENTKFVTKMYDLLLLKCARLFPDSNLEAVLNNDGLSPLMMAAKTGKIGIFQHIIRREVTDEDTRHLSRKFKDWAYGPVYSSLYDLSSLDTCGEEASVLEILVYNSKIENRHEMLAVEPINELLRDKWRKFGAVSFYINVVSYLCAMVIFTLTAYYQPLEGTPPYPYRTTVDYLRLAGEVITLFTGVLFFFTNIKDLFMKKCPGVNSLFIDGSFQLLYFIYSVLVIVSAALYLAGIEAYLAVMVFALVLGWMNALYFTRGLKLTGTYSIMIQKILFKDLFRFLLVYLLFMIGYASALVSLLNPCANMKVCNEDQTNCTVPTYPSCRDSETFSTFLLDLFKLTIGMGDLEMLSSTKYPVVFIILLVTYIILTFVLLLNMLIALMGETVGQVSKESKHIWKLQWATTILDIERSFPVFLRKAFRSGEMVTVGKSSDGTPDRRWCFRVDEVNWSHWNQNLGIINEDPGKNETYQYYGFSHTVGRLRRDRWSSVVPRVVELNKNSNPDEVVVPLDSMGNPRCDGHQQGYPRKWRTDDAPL
Experimental: Example 23. TRPV4 Calcium Assay Methods
Human embryonic kidney 293T (HEK293T/293T) cells are cultured in complete media (Dulbecco's Modified Eagle Medium (DMEM), containing 10% fetal bovine serum (FBS) and 1× penicillin-streptomycin) in a T-75 tissue culture flask. At 90% confluency, cells are detached using TrypLE™ Express cell dissociation buffer. TrypLE™ Express buffer is neutralized by adding culture media in excess. Cells are gently triturated and counted using trypan blue in a Countess 3 automated cell counter. Cells are transferred to a 50 mL conical tube and spun down at 1000 rotations per minute (RPM) for five minutes in a benchtop centrifuge. Media containing detaching enzyme is aspirated off the pellet, followed by resuspension to the desired concentration of 2×10^6 cells per mL in complete DMEM.
Transfection preparations were scaled using a combination of 6 μg of TRPV4 wild-type or mutant plasmid DNA, 36 μL of Fugene6 transfection reagent, and 1000 μL of OptiMEM media for every 2×10^6 cells needed. The transfection mix is left to incubate for 20 minutes at room temperature. Total seeding mixture (1000 μL 2×10^6 cells, 1000 μL transfection mix previously described, and 1000 μL complete DMEM) for one transfection is combined into a 15 mL conical tube. The cells and transfection plasmid are mixed thoroughly and dispensed into a reservoir. This is plated at 25 μL per well in a black 384, black-well, clear-bottom, tissue-culture treated plate. This yields approximately 16,000 cells per well. Plasmid DNA constructs were designed by Actio Biosciences in conjunction with Genscript, and generated by Genscript, for all hTRPV4 wild-type and hTRPV4 P/LP (ClinVar) mutations (G78W, P82S, T891, P97R, R186Q, R232C, R232P, R237G, R237Q, R237 L, R269C, R269H, R269S, G270V, R271P, F273 L, K276E, E278K, G280S, Y281S, R315G, R315W, R316C, R316H, R316 L, R316S, I331F, D333G, S403T, K403T, K407E, S542P, S542Y, L543R, Y591N, R594C, R594H, R594S, G600E, Y602C, R616Q, F617 L, L618P, V6201, A716S, A716T, L735R, T740I, R775K, W785R, E797D, E797K, P799A, P799R, P799S, P799 L, G800D, K801E, P827H, F471del, N797del). The remaining cells are plated in the same manner, in a 384, white-well, clear-bottom, tissue-culture treated plate for expression and relative cell number determination. Plates are placed in the incubator at 37° C. overnight.
Compounds were brought to 10 mM in DMSO. DMSO concentration was kept constant throughout the dilution of any compound. DMSO negative control and concentration-response curves were nanoliter-spotted via PICO8 automated dispenser at 5× test concentration into a 384w clear polypropylene plate containing 1×HBSS+20 mM HEPES buffer. A predetermined concentration equivalent to the EC80 of TRPV4 agonist on hTRPV4 was prepared at 6× in 1×HBSS+20 mM HEPES and loaded into a separate 384-well v-bottom polypropylene plate.
Approximately 18 hours post-transfection, the cell plates were removed from the incubator and equal volume (25 uL) Calcium 6 dye was gently added. Calcium 6 dye containing probenecid (final 5 mM) was prepared per manufacturer's instructions. Cell plate was returned to the incubator for 1 hour, at 37° C.
FLIPR Penta was programmed to add compound using the following settings • Pipettor Head=384 • Read Mode 1 Excitation Wavelength=470_495 • Read Mode 1 Emission Wavelength=515_575 • Read Mode 1 Exposure=0.1000 • Read Mode 1 Gain=6.50 • Read Mode 1 Excitation Intensity=20 • Volume of addition=12.5 μL • Height=40 μL • Speed=15 μL/second
Raw data was exported and analyzed for maximum signal (RFU) after agonist addition—the average baseline (RFU) in the first 15 seconds per well. Data was plotted in GraphPad Prism to determine EC50 or IC50 of the molecules.

[6] = biological target: recombinant human CYP3A4 enzyme (Homo sapiens, UniProt P08684); assay: CYP3A4 incubation assay; assay type: in vitro ADME
recombinant human CYP3A4 enzyme, sequence (P08684 whole entry): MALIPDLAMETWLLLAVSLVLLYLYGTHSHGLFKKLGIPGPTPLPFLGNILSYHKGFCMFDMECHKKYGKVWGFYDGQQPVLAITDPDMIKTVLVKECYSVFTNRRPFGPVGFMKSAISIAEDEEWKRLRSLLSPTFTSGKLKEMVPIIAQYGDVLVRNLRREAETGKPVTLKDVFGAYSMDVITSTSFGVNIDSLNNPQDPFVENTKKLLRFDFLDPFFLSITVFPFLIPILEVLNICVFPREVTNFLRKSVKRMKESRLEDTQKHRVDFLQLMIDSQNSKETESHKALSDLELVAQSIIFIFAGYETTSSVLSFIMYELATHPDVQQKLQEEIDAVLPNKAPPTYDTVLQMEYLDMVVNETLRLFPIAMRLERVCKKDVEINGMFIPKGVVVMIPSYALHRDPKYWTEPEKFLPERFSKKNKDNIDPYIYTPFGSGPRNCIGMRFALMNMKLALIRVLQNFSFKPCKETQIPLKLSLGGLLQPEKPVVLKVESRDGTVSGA
Experimental: Example 24. CYP3A4 Incubation Assay
Compounds (final concentration […]) were incubated in 100 mM phosphate buffer containing 100 pmol/mL recombinant human CYP3A4 enzyme for 0, 5, 10, 15 and 25 minutes.
Testosterone was used as positive control. Reaction was initiated by the addition of NADPH (final concentration […]) and carried out at 37° C. The reaction was stopped by the addition of 4 volumes of cold acetonitrile (with 100 nM alprazolam, 200 nM labetalol, 200 nM imipramine and 2 μM ketoprofen as internal standards). Samples were centrifuged at 3,220 g for 40 minutes to precipitate protein. 70 μL supernatant was transferred to the analysis plate containing 110 μL of acetonitrile for LC-MS/MS analysis.
The following table indicates the percentage remaining for the indicated examples after incubation with recombinant Human CYP3A4 after 25 minutes under the same conditions as described for Example […].

[7] = 100 pmol/mL recombinant human CYP3A4, 37° C., 0-25 min

CYP3A4 Clint ([6]; human, recombinant enzyme)	Structure (SMILES)	Hepatocytes predicted clearance in rat (Hepatocytes [1]) [mL/min/kg]	Hepatocytes predicted clearance in dog (Hepatocytes [2]) [mL/min/kg]	Hepatocytes predicted clearance in cyno (Hepatocytes [3]) [mL/min/kg]	Hepatocytes predicted clearance in mouse (Hepatocytes [4]) [mL/min/kg]	Hepatocytes predicted clearance in human (Hepatocytes [5]) [mL/min/kg]	IC50 (Human TRPV4) [nM]	CYP3A4 Clint [6, 7]
	CC(C)(O)c1cnc(N2C[C@@]3(CCC(C)(C)[C@H](Cn4cnc5ccc(C#N)cc54)C3)OC2=O)cn1 (single isomer, unassigned) [Example 1]	10.8	11.5	4	118	4.5	606	
	CC(C)(O)c1cnc(N2C[C@@]3(CCC4(CC4)[C@@H](Cn4cnc5ccc(C#N)cc54)C3)OC2=O)cn1 (single isomer, unassigned) [Example 3]	79.5	17.3	182	131	3.17	852	
<0.07, <0.07 μL/min/pmol CYP450	CC(C)(O)c1cnc(N2C[C@@]3(CCC4(CC4)[C@](C)(Cn4cnc5ccc(C#N)cc54)C3)OC2=O)cn1 (single isomer, unassigned) [Example 6]	8.3	3.17	120	24.5	6.5	8	
	CC(C)(O)c1cnc(N2C[C@@]3(CCC[C@](CF)(Cn4cnc5ccc(C#N)cc54)C3)OC2=O)cn1 (single isomer, unassigned) [Example 7]	6.7	< 0.17	4.5	43.2	1	11	<0.07, <0.07 μL/min/pmol CYP450
<0.07, <0.07 μL/min/pmol CYP450	CC(C)(O)c1cnc(N2C[C@@]3(CC[C@H]4C[C@@]4(Cn4cnc5ccc(C#N)cc54)C3)OC2=O)cn1 (single isomer, unassigned) [Example 8]	54.5	30	37.5	281.2	< 0.17	391	
	CO[C@@H]1CC[C@@]2(CN(c3cnc(C(C)(C)O)cn3)C(=O)O2)C[C@@]1(C)Cn1cnc2ccc(C#N)cc21 (single isomer, unassigned) [Example 10]						158	0.22 μL/min/pmol CYP450 and 0.21 μL/min/pmol CYP450
	CC(C)(C)CN1C[C@@]2(CCC(F)(F)[C@H](Cn3cnc4ccc(C#N)cc43)C2)OC1=O (single isomer, unassigned) [Example 11]	251.2	63.3	90.5	515.2	17.3	39	
	N#Cc1ccc2ncn(C[C@@H]3C[C@@]4(CCC3(F)F)CN(c3ccccc3Cl)C(=O)O4)c2c1 (single isomer, unassigned) [Example 12]	82.5	284.5	101	449.3	7.5	103	
	CCOc1ccccc1N1C[C@@]2(CCC(F)(F)[C@H](Cn3cnc4ccc(C#N)cc43)C2)OC1=O (single isomer, unassigned) [Example 13]						496	
	C=C1CC[C@@]2(CN(c3cnc(C(C)(C)O)cn3)C(=O)O2)C[C@@]1(C)Cn1cnc2ccc(C#N)cc21 (single isomer, unassigned) [Example 16]	69.3	4	22.7	90.7	5.5	2130	0.20 μL/min/pmol CYP450 and 0.19 μL/min/pmol CYP450
	CC1(C)C[C@](C)(Cn2cnc3ccc(C#N)cc32)C[C@@]2(CN(c3cnc(C(C)(C)O)cn3)C(=O)O2)C1 (single isomer, unassigned) [Example 17]	39.3	1.3	43.7	119	1.5	5740	0.07, <0.07 μL/min/pmol CYP450
	CC(C)(O)c1cnc(N2C[C@@]3(CC[C@@H](F)[C@](C)(Cn4cnc5cc(F)c(C#N)cc54)C3)OC2=O)cn1 (single isomer, unassigned) [Example 18]						9	
	CC(C)(O)c1cnc(N2C[C@@]3(CC[C@@H](F)[C@](C)(Cn4cnc5c(Cl)cc(C#N)cc54)C3)OC2=O)cn1 (single isomer, unassigned) [Example 19]						9	
	CO[C@]1(Cn2cnc3ccc(C#N)cc32)CCC[C@@]2(CN(c3cnc(C(C)(C)O)cn3)C(=O)O2)C1 [Example 9, 1-(((5S,7R)-3-(5-(2-Hydroxypropan-2-yl)pyrazin-2-yl)-7-methoxy-2-oxo-1-oxa-3-azaspiro[4.5]decan-7-yl)methyl)-1H-benzo[d]imidazole-6-carbonitrile]						213	0.42 μL/min/pmol CYP450 and 0.33 μL/min/pmol CYP450
